Measurements reported in patent publication US11684607B2, “Secnidazole for use in the treatment of bacterial vaginosis” (priority 2014, dated 2023).
Read-outs that look alike come from different tables or passages of the source.

Test: Effect of a single 2 g dose of SYM-1219 on the plasma pharmacokinetics of EE2 and NET in healthy female subjects
Format: in vivo, human
Method: Methods: Fifty-four (54) healthy female subjects, ages 18-65, received EE2/NET alone and in combination, where SYM-1219+EE2/NET were co-administered on Day 1 (Group B1; N=27) or SYM-1219 on Day 1 and EE2/NET on Day 2 (Group B2; N=27). Serial blood samples were drawn to measure plasma concentrations of EE2/NET. […] Safety was evaluated by recording of adverse events, vital signs, ECGs and standard laboratory tests.

[1] = EE2/NET administered 1 day after SYM-1219
[2] = Group B1: Period 2 (EE2/NET followed by SYM-1219 2 grams on Day 1) vs Period 1 (EE2/NET alone)
[3] = Group B1 Period 1: EE2/NET alone
[4] = Group B1 Period 2: EE2/NET followed by SYM-1219 2 grams on Day 1
[5] = Group B2: Period 2 (SYM-1219 2 grams on Day 1, EE2/NET on Day 2) vs Period 1 (EE2/NET alone)
[6] = Group B2: SYM-1219 2 g on Day 1, EE2/NET on Day 2
[7] = Group B2 Period 1: EE2/NET alone
[8] = Group B2 Period 2: SYM-1219 2 grams on Day 1, EE2/NET on Day 2

- NET Cmax, AUC0-t or AUC0-∞ increase [1]: 9-16%
- NET upper value of the 90% CI for Cmax [1]: 131%
- NET AUC0-t, Geometric LSMean % Ratio (100 * Test/Reference) [2]: 115.52%
- NET AUC0-∞, Geometric LSMean % Ratio (100 * Test/Reference) [2]: 116.27%
- NET Cmax, Geometric LSMean % Ratio (100 * Test/Reference) [2]: 113.18%
- NET Cmax and AUC increase (Group B1: SYM-1219 2 g and EE2/NET co-administered on Day 1): 13%
- NET λz, Mean [3]: 0.07709 h⁻¹
- NET λz, Median [3]: 0.07966 h⁻¹
- NET λz, Mean [4]: 0.07886 h⁻¹
- NET λz, Median [4]: 0.07642 h⁻¹
- NET AUC0-t, Geometric LSMean % Ratio (100 * Test/Reference) [5]: 110.78%
- NET AUC0-∞, Geometric LSMean % Ratio (100 * Test/Reference) [5]: 108.75%
- NET Cmax, Geometric LSMean % Ratio (100 * Test/Reference) [5]: 116.46%
- NET Cmax increase [6]: 16%
- change in NET AUC [6]: no change
- NET λz, Mean [7]: 0.07369 h⁻¹
- NET λz, Median [7]: 0.07458 h⁻¹
- NET Cmax, Mean [8]: 10.6 ng/mL
- NET λz, Mean [8]: 0.07685 h⁻¹
- NET λz, Median [8]: 0.07539 h⁻¹
- NET Cmax, AUC0-t or AUC0-∞ increase (SYM-1219 administered immediately after EE2/NET): 13-16%
- AUC(0-t) (female, human, plasma, Group B1 Period 1: EE2/NET alone, read-out: NET AUC0-t, Geometric LSMeans): 42.2 ng·h/mL
- AUC(0-t) (female, human, plasma, Group B1 Period 1: EE2/NET alone, read-out: NET AUC0-t, Mean): 49.4 ng·h/mL
- AUC(0-t) (female, human, plasma, Group B1 Period 1: EE2/NET alone, read-out: NET AUC0-t, Median): 38.7 ng·h/mL
- AUC(0-inf) (female, human, plasma, Group B1 Period 1: EE2/NET alone, read-out: NET AUC0-∞, Geometric LSMeans): 48.5 ng·h/mL
- AUC(0-inf) (female, human, plasma, Group B1 Period 1: EE2/NET alone, read-out: NET AUC0-∞, Mean): 57.8 ng·h/mL
- AUC(0-inf) (female, human, plasma, Group B1 Period 1: EE2/NET alone, read-out: NET AUC0-∞, Median): 45.3 ng·h/mL
- Cmax (female, human, plasma, Group B1 Period 1: EE2/NET alone, read-out: NET Cmax, Geometric LSMeans): 8.09 ng/mL
- Cmax (female, human, plasma, Group B1 Period 1: EE2/NET alone, read-out: NET Cmax, Mean): 9.18 ng/mL
- Cmax (female, human, plasma, Group B1 Period 1: EE2/NET alone, read-out: NET Cmax, Median): 8 ng/mL
- Tmax (female, human, plasma, Group B1 Period 1: EE2/NET alone, read-out: NET Tmax, Median): 1 h
- half-life (female, human, plasma, Group B1 Period 1: EE2/NET alone, read-out: NET t1/2, Mean (converted)): 9.6 h
- half-life (female, human, plasma, Group B1 Period 1: EE2/NET alone, read-out: NET t1/2, Median (converted)): 8.71 h
- AUC(0-t) (female, human, plasma, Group B1 Period 2: EE2/NET followed by SYM-1219 2 grams on Day 1, read-out: NET AUC0-t, Geometric LSMeans): 48.7 ng·h/mL
- AUC(0-t) (female, human, plasma, Group B1 Period 2: EE2/NET followed by SYM-1219 2 grams on Day 1, read-out: NET AUC0-t, Mean): 53.5 ng·h/mL
- AUC(0-t) (female, human, plasma, Group B1 Period 2: EE2/NET followed by SYM-1219 2 grams on Day 1, read-out: NET AUC0-t, Median): 48.9 ng·h/mL
- AUC(0-inf) (female, human, plasma, Group B1 Period 2: EE2/NET followed by SYM-1219 2 grams on Day 1, read-out: NET AUC0-∞, Geometric LSMeans): 56.4 ng·h/mL
- AUC(0-inf) (female, human, plasma, Group B1 Period 2: EE2/NET followed by SYM-1219 2 grams on Day 1, read-out: NET AUC0-∞, Mean): 62.4 ng·h/mL
- AUC(0-inf) (female, human, plasma, Group B1 Period 2: EE2/NET followed by SYM-1219 2 grams on Day 1, read-out: NET AUC0-∞, Median): 54.3 ng·h/mL
- Cmax (female, human, plasma, Group B1 Period 2: EE2/NET followed by SYM-1219 2 grams on Day 1, read-out: NET Cmax, Geometric LSMeans): 9.16 ng/mL
- Cmax (female, human, plasma, Group B1 Period 2: EE2/NET followed by SYM-1219 2 grams on Day 1, read-out: NET Cmax, Mean): 10.1 ng/mL
- Cmax (female, human, plasma, Group B1 Period 2: EE2/NET followed by SYM-1219 2 grams on Day 1, read-out: NET Cmax, Median): 9.45 ng/mL
- half-life (female, human, plasma, Group B1 Period 2: EE2/NET followed by SYM-1219 2 grams on Day 1, read-out: NET t1/2, Mean (converted)): 9.6 h
- half-life (female, human, plasma, Group B1 Period 2: EE2/NET followed by SYM-1219 2 grams on Day 1, read-out: NET t1/2, Median (converted)): 9.12 h
- AUC(0-t) (female, human, plasma, Group B2 Period 1: EE2/NET alone, read-out: NET AUC0-t, Geometric LSMeans): 46.9 ng·h/mL
- AUC(0-t) (female, human, plasma, Group B2 Period 1: EE2/NET alone, read-out: NET AUC0-t, Mean): 61.4 ng·h/mL
- AUC(0-t) (female, human, plasma, Group B2 Period 1: EE2/NET alone, read-out: NET AUC0-t, Median): 41.7 ng·h/mL
- AUC(0-inf) (female, human, plasma, Group B2 Period 1: EE2/NET alone, read-out: NET AUC0-∞, Geometric LSMeans): 55.1 ng·h/mL
- AUC(0-inf) (female, human, plasma, Group B2 Period 1: EE2/NET alone, read-out: NET AUC0-∞, Mean): 75 ng·h/mL
- AUC(0-inf) (female, human, plasma, Group B2 Period 1: EE2/NET alone, read-out: NET AUC0-∞, Median): 47.4 ng·h/mL
- Cmax (female, human, plasma, Group B2 Period 1: EE2/NET alone, read-out: NET Cmax, Geometric LSMeans): 8.36 ng/mL
- Cmax (female, human, plasma, Group B2 Period 1: EE2/NET alone, read-out: NET Cmax, Mean): 9.63 ng/mL
- Cmax (female, human, plasma, Group B2 Period 1: EE2/NET alone, read-out: NET Cmax, Median): 8.16 ng/mL
- half-life (female, human, plasma, Group B2 Period 1: EE2/NET alone, read-out: NET t1/2, Mean (converted)): 10 h
- half-life (female, human, plasma, Group B2 Period 1: EE2/NET alone, read-out: NET t1/2, Median (converted)): 9.29 h
- AUC(0-t) (female, human, plasma, Group B2 Period 2: SYM-1219 2 grams on Day 1, EE2/NET on Day 2, read-out: NET AUC0-t, Geometric LSMeans): 51.9 ng·h/mL
- AUC(0-t) (female, human, plasma, Group B2 Period 2: SYM-1219 2 grams on Day 1, EE2/NET on Day 2, read-out: NET AUC0-t, Mean): 61.2 ng·h/mL
- AUC(0-t) (female, human, plasma, Group B2 Period 2: SYM-1219 2 grams on Day 1, EE2/NET on Day 2, read-out: NET AUC0-t, Median): 44.5 ng·h/mL
- AUC(0-inf) (female, human, plasma, Group B2 Period 2: SYM-1219 2 grams on Day 1, EE2/NET on Day 2, read-out: NET AUC0-∞, Geometric LSMeans): 60 ng·h/mL
- AUC(0-inf) (female, human, plasma, Group B2 Period 2: SYM-1219 2 grams on Day 1, EE2/NET on Day 2, read-out: NET AUC0-∞, Mean): 71.5 ng·h/mL
- AUC(0-inf) (female, human, plasma, Group B2 Period 2: SYM-1219 2 grams on Day 1, EE2/NET on Day 2, read-out: NET AUC0-∞, Median): 51.6 ng·h/mL
- Cmax (female, human, plasma, Group B2 Period 2: SYM-1219 2 grams on Day 1, EE2/NET on Day 2, read-out: NET Cmax, Geometric LSMeans): 9.74 ng/mL
- Cmax (female, human, plasma, Group B2 Period 2: SYM-1219 2 grams on Day 1, EE2/NET on Day 2, read-out: NET Cmax, Mean): 10.7 ng/mL
- Cmax (female, human, plasma, Group B2 Period 2: SYM-1219 2 grams on Day 1, EE2/NET on Day 2, read-out: NET Cmax, Median): 9.39 ng/mL
- half-life (female, human, plasma, Group B2 Period 2: SYM-1219 2 grams on Day 1, EE2/NET on Day 2, read-out: NET t1/2, Mean (converted)): 9.51 h
- half-life (female, human, plasma, Group B2 Period 2: SYM-1219 2 grams on Day 1, EE2/NET on Day 2, read-out: NET t1/2, Median (converted)): 9.19 h
Structure (SMILES): C#C[C@]1(O)CC[C@H]2[C@@H]3CCC4=CC(=O)CC[C@@H]4[C@H]3CC[C@@]21C [NET, norethindrone]
